This experiment deals with T1, human NOX4 (Homo sapiens, UniProt Q9NPH5).
T1 construct: expressed in transfected cells; membrane fraction used
T1 sequence (Q9NPH5 1-578): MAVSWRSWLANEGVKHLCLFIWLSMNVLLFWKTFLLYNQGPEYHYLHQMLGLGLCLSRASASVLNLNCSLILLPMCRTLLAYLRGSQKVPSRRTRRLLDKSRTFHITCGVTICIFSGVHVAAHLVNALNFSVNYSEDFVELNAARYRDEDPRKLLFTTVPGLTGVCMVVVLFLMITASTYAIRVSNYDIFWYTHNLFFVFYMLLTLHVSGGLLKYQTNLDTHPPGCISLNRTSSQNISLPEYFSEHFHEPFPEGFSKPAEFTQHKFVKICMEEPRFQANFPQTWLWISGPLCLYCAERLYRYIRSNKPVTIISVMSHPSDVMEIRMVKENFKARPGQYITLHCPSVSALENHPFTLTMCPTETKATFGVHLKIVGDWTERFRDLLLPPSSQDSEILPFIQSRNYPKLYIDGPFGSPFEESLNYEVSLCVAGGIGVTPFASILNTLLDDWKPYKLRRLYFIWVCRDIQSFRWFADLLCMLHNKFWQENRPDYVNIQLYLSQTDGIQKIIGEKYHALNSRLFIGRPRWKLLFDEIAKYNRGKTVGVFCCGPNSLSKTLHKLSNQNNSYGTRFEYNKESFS
T1 sequence (P13498 1-195 partner): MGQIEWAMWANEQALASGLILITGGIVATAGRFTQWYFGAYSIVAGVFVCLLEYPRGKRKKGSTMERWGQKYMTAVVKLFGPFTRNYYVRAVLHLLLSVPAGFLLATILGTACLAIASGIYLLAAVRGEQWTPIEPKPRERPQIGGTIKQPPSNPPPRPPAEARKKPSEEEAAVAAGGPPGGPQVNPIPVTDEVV
In words: Cell free membrane based in vitro NOX4 assay: H2O2 production by membranes expressing human NOX4, measured with Amplex Red. Format: biochemical. As to conditions: for inhibition at 1 µM: read-out: Percentage inhibition at 1.0 μM; for inhibition at 10 µM: read-out: Percentage inhibition at 10.0 μM; for IC50: class symbols. The method, boiled down:
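IC50 came from concentration-response curves fitted as % of the inhibitor-free maximum. H2O2 formation was monitored for 10 min via Amplex Red/HRP fluorescence (544/590 nm) after NADPH start. Membranes from a stable hNOX4/HEK line had 20 min exposure to inhibitor beforehand at pH 7.4.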

Structures can show the parent of a compound that is named as a salt. Where only a bound is given, the exact number is not on record here.

On to `CC(C)CN1CCN(Cc2nn(C)c3[nH]c(-c4c(F)cccc4F)c(O)c(=O)c23)CC1` [Example 214, 6-(2,6-Difluorophenyl)-5-hydroxy-3-((4-isobutylpiperazin-1-yl)methyl)-1-methyl-1H-pyrazolo[3,4-b]pyridin-4(7H)-one], for which the IC50 is above 150 nM. For the same compound, under “1.0 μM compound”, the inhibition at 1 µM came to 81.8%. In addition, the inhibition at 10 µM (10.0 μM compound) was found to be 85%.

On to `Cc1nn(CCCN2CCOCC2)c2[nH]c(-c3ccccc3Cl)c(O)c(=O)c12` [Example 147, 6-(2-Chlorophenyl)-5-hydroxy-3-methyl-1-(3-morpholinopropyl)-1H-pyrazolo[3,4-b]pyridin-4(7H)-one], for which the IC50 was 100 to 150 nM. The inhibition at 1 µM (1.0 μM compound) was 94.3%. In addition, the inhibition at 10 µM (10.0 μM compound) turned out to be 64.9%.

Regarding `CCn1nc(C)c2c(=O)c(O)c(-c3c(F)cc(F)cc3F)[nH]c21` [Example 97, 1-Ethyl-5-hydroxy-3-methyl-6-(2,4,6-trifluorophenyl)-1H-pyrazolo[3,4-b]pyridin-4(7H)-one], the IC50 is above 150 nM. Besides, where the note is “1.0 μM compound”, the inhibition at 1 µM worked out at 76.7%. For the same compound, the inhibition at 10 µM (10.0 μM compound) amounted to 78.2%.

`Cc1nn(C2CCOCC2)c2[nH]c(-c3cc(CNC(=O)C(C)(C)C)ccc3Cl)c(O)c(=O)c12` [Example 142, N-(4-Chloro-3-(5-hydroxy-3-methyl-4-oxo-1-(tetrahydro-2H-pyran-4-yl)-4,7-dihydro-1H-pyrazolo[3,4-b]pyridin-6-yl)benzyl)pivalamide] yielded an IC50 above 150 nM. For the same compound, the inhibition at 1 µM (1.0 μM compound) came to 80.4%. The inhibition at 10 µM (10.0 μM compound) stood at 69.9%.

Compound `Cc1nn(-c2ccc(F)cc2)c2[nH]c(-c3ccccc3Cl)c(O)c(=O)c12` [Example 33, 6-(2-Chlorophenyl)-1-(4-fluorophenyl)-5-hydroxy-3-methyl-1,7-dihydro-4H-pyrazolo[3,4-b]pyridin-4-one] registered an IC50 below 50 nM. In addition, the inhibition at 1 µM (1.0 μM compound) stood at 100%. Moreover, for the setting “10.0 μM compound”, the inhibition at 10 µM came to 100%.

In turn, `Cc1nn(C2CC2)c2[nH]c(-c3cccc(F)c3F)c(O)c(=O)c12` [Example 96, 1-Cyclopropyl-6-(2,3-difluorophenyl)-5-hydroxy-3-methyl-1H-pyrazolo[3,4-b]pyridin-4(7H)-one] came in with an IC50 above 150 nM. The inhibition at 1 µM (1.0 μM compound) is 67.3%. Besides, for the setting “10.0 μM compound”, the inhibition at 10 µM stood at 72.3%.

In the case of `O=c1c(O)c(-c2c(F)cccc2F)[nH]c2c1c(CN1CCOCC1)nn2C1CC1` [Example 201, 1-Cyclopropyl-6-(2,6-difluorophenyl)-5-hydroxy-3-(morpholinomethyl)-1H-pyrazolo[3,4-b]pyridin-4(7H)-one], the IC50 was above 150 nM. Also, the inhibition at 1 µM (1.0 μM compound) was determined as 74%. Further, the inhibition at 10 µM (10.0 μM compound) was 87%.

`CCc1nn(C)c2[nH]c(-c3ccc(OC)cc3F)c(O)c(=O)c12` [Example 72, 3-Ethyl-6-(2-fluoro-4-methoxyphenyl)-5-hydroxy-1-methyl-1H-pyrazolo[3,4-b]pyridin-4(7H)-one]: the IC50 was in the range of 100 to 150 nM. For the same compound, under “1.0 μM compound”, the inhibition at 1 µM turned out to be 82.2%.

For the compound `CCc1nn(CCN2CCOCC2=O)c2[nH]c(-c3ccccc3Cl)c(O)c(=O)c12` [Example 167, 4-(2-(6-(2-Chlorophenyl)-3-ethyl-5-hydroxy-4-oxo-4,7-dihydro-1H-pyrazolo[3,4-b]pyridin-1-yl)ethyl)morpholin-3-one], the IC50 lay in the range of 50 to 100 nM. Also, the inhibition at 1 µM (1.0 μM compound) came out at 86%. Besides, the inhibition at 10 µM (10.0 μM compound) amounted to 71.8%.

For the compound `CCn1nc(C)c2c(=O)c(O)c(-c3cc(CNC(=O)C(C)(C)C)ccc3Cl)[nH]c21` [Example 129, N-(4-Chloro-3-(1-ethyl-5-hydroxy-3-methyl-4-oxo-4,7-dihydro-1H-pyrazolo[3,4-b]pyridin-6-yl)benzyl)pivalamide], the IC50 was 50 to 100 nM. For the same compound, the inhibition at 1 µM (1.0 μM compound) came out at 85.1%. For the same compound, the inhibition at 10 µM (10.0 μM compound) was found to be 74.4%.

As to `Cn1nc2[nH]c(-c3ccccc3Cl)c(O)c(=O)c2c1-c1ccc(F)cc1` [Example 58, 6-(2-Chlorophenyl)-3-(4-fluorophenyl)-5-hydroxy-2-methyl-2,7-dihydro-4H-pyrazolo[3,4-b]pyridin-4-one], the inhibition at 1 µM (1.0 μM compound) is 36.7%. The inhibition at 10 µM (10.0 μM compound) was 51.2%.

Consider `Cc1nn(-c2ccc(F)c(F)c2)c2[nH]c(-c3ccccc3Cl)c(O)c(=O)c12` [Example 31, 6-(2-Chlorophenyl)-1-(3,4-difluorophenyl)-5-hydroxy-3-methyl-1,7-dihydro-4H-pyrazolo[3,4-b]pyridin-4-one], for which the IC50 is below 50 nM. Besides, the inhibition at 1 µM (1.0 μM compound) amounted to 100%. Further, the inhibition at 10 µM (10.0 μM compound) was determined as 100%.

As for `Cc1nn(C)c2[nH]c(-c3ccc(C(F)(F)F)c(F)c3)c(O)c(=O)c12` [Example 22, 6-[3-Fluoro-4-(trifluoromethyl)phenyl]-5-hydroxy-1,3-dimethyl-1,7-dihydro-4H-pyrazolo[3,4-b]pyridin-4-one], the IC50 is above 150 nM. In addition, under “1.0 μM compound”, the inhibition at 1 µM is 100%. Besides, the inhibition at 10 µM (10.0 μM compound) is 80.9%.

The compound `CCc1nn(CCN2CCC(F)(F)CC2)c2[nH]c(-c3ccccc3Cl)c(O)c(=O)c12` [Example 210, 6-(2-Chlorophenyl)-1-(2-(4,4-difluoropiperidin-1-yl)ethyl)-3-ethyl-5-hydroxy-1H-pyrazolo[3,4-b]pyridin-4(7H)-one] registered an IC50 above 150 nM. The inhibition at 1 µM (1.0 μM compound) is 91%. The inhibition at 10 µM (10.0 μM compound) stood at 86.3%.

With `Cn1nc(Cc2ccccc2Cl)c2c(=O)c(O)c(-c3ccccc3Cl)[nH]c21` [Example 145, 3-(2-Chlorobenzyl)-6-(2-chlorophenyl)-5-hydroxy-1-methyl-1H-pyrazolo[3,4-b]pyridin-4(7H)-one], the IC50 is above 150 nM. Besides, the inhibition at 1 µM (1.0 μM compound) was 90%. The inhibition at 10 µM (10.0 μM compound) amounted to 93.2%.

Compound `CC(C)N1CCN(Cc2nn(C)c3[nH]c(-c4c(F)cccc4F)c(O)c(=O)c23)C[C@@H]1C` [Example 222, (S)-6-(2,6-Difluorophenyl)-5-hydroxy-3-((4-isopropyl-3-methylpiperazin-1-yl)methyl)-1-methyl-1H-pyrazolo[3,4-b]pyridin-4(7H)-one] gave an IC50 above 150 nM. In addition, the inhibition at 1 µM (1.0 μM compound) was found to be 86.2%. The inhibition at 10 µM (10.0 μM compound) was determined as 92.7%.

As for `CCn1nc(C)c2c(=O)c(O)c(-c3ccc(N)cc3F)[nH]c21` [Example 119, 6-(4-Amino-2-fluorophenyl)-1-ethyl-5-hydroxy-3-methyl-1,7-dihydro-4H-pyrazolo[3,4-b]pyridin-4-one], the IC50 is above 150 nM. Moreover, for the setting “1.0 μM compound”, the inhibition at 1 µM worked out at 66.9%.

`Cc1nn(-c2ccccn2)c2[nH]c(-c3c(F)cccc3F)c(O)c(=O)c12` [Example 36, 6-(2,6-Difluorophenyl)-5-hydroxy-3-methyl-1-(pyridin-2-yl)-1,7-dihydro-4H-pyrazolo[3,4-b]pyridin-4-one] returned an IC50 above 150 nM. Besides, the inhibition at 1 µM (1.0 μM compound) is 84.2%. The inhibition at 10 µM (10.0 μM compound) worked out at 100%.

Consider `Cc1nn(C)c2[nH]c(-c3ccc(Cl)cc3Cl)c(O)c(=O)c12` [Example 11, 6-(2,4-Dichlorophenyl)-5-hydroxy-1,3-dimethyl-1,7-dihydro-4H-pyrazolo[3,4-b]pyridin-4-one], for which the IC50 lay in the range of 100 to 150 nM. Further, the inhibition at 1 µM (1.0 μM compound) was found to be 76.6%. The inhibition at 10 µM (10.0 μM compound) is 76.5%.

As for `CCc1nn(CCN2CCOCC2)c2[nH]c(-c3ccccc3Cl)c(O)c(=O)c12` [Example 238, 6-(2-Chlorophenyl)-3-ethyl-5-hydroxy-1-(2-morpholinoethyl)-1H-pyrazolo[3,4-b]pyridin-4(7H)-one hydrochloride], the IC50 was above 150 nM. Besides, for the setting “1.0 μM compound, hydrochloride, 1 µM”, the “Percentage inhibition at 1.0 μM” value turned out to be 80.17%. For the same compound, the “Percentage inhibition at 10.0 μM” value (10.0 μM compound, hydrochloride, 10 µM) came out at 71.20%.

The compound `O=c1c(O)c(-c2ccccc2Cl)[nH]c2sc(C(F)(F)F)nc12` [Example 63, 5-(2-Chlorophenyl)-6-hydroxy-2-trifluoromethyl[1,3]thiazolo[5,4-b]pyridin-7(4H)-one] yielded an IC50 above 150 nM. Under “1.0 μM compound”, the inhibition at 1 µM worked out at 58.6%. Further, the inhibition at 10 µM (10.0 μM compound) amounted to 100%.

With `CCc1nn(CCCN2CCOCC2)c2[nH]c(-c3ccc(F)cc3F)c(O)c(=O)c12` [Example 176, 6-(2,4-Difluorophenyl)-3-ethyl-5-hydroxy-1-(3-morpholinopropyl)-1H-pyrazolo[3,4-b]pyridin-4(7H)-one], the IC50 is above 150 nM. Also, the inhibition at 1 µM (1.0 μM compound) was 81.3%.

As for `Cn1nc(C2CCOCC2)c2c(=O)c(O)c(-c3c(F)cccc3F)[nH]c21` [Example 189, 6-(2,6-Difluorophenyl)-5-hydroxy-1-methyl-3-(tetrahydro-2H-pyran-4-yl)-1H-pyrazolo[3,4-b]pyridin-4(7H)-one], the IC50 is below 50 nM. Besides, for the setting “1.0 μM compound”, the inhibition at 1 µM was 99.2%. Further, the inhibition at 10 µM (10.0 μM compound) was 98.6%.

As usually defined, the inhibition is how much of the control response was suppressed. Broadly, the IC50 is the concentration at which inhibition is half-maximal. Read a low IC50 as inhibition by little substance.

Source of the values: patent US20200247800A1, “SUBSTITUTED BICYCLIC HETEROCYCLIC COMPOUNDS AS NADPH OXIDASE INHIBITORS” (Glenmark Pharmaceuticals S.A., priority 2017, published 2020).
